Laboratory results from patent US9572799B2, “Pyrazolopyridine derivatives for use in the treatment of bladder cancer” (SANOFI, priority 2013, dated 2017).
Counter-ions that a name gives are not always drawn.

Tests used:
[1] = test system: bladder cancer tumour cells of TCC97-7 type carrying the Ser249Cys mutation of FGF receptor 3; assay: Inhibition of serum-induced proliferation of TCC97-7 bladder cancer cells (cell-covered surface area, Incucyte); format: cell-based; conditions: 72 h, TCC97-7 cell line in the presence of serum, after 3 days
Experimental: Evaluation of the Capacity of the FGF-R Antagonists to Inhibit Serum-Induced Proliferation of Bladder Cancer Tumour Cells of TCC97-7 Type Carrying the Ser249Cys Mutation of FGF Receptor 3
To do this, 2000 cells are seeded in the morning in 50 μl of complete medium (Ham-F/12, 1% FCS, 2 mM glutamine, non-essential amino acids, sodium pyruvate, 1% insulin/transferrin/selenium, hydrocortisone). In the evening, 50 μl of the various compounds are added at 2 or 20 μM after dilution in complete culture medium in order to obtain final concentrations of 1 or 10 μM. After 3 days, cell proliferation is evaluated by measuring the cell-covered surface area of a well of a 96 well plate. This surface area is measured using an Incucyte apparatus (Essen BioScience). The percentage inhibition of the cell proliferation is calculated by considering the surface area occupied by the TCC97-7 cells cultured in the absence of FGF-R antagonists to be 0% inhibition. 100% inhibition would correspond to a well no longer containing cells.
Thus, compounds 1 to 24 are capable of inhibiting TCC97-7 cell proliferation by more than 20% at the dose of 1 or 10 μM. (Table No. 2).

[2] = test system: TCC97-7 bladder cancer cells carrying the Ser249Cys mutation of FGF-R3; assay: Reduction of intracellular ATP content of TCC97-7 cells in serum-supplemented medium (Cell Titer-Glo); format: cell-based; conditions: 72 h, TCC97-7 cells cultured in the presence of serum, after 3 days, read-out: Inhibition of the amount of intracellular ATP (%)
Experimental: Evaluation of the Capacity of FGF-R Antagonists to Reduce the ATP Content of TCC97-7 Bladder Cancer Cells Carrying the Ser249Cys Mutation of FGF-R3, Cultured in a Serum-Supplemented Medium
To do this, 3000 cells are seeded in 50 μl of complete medium (Ham-F/12, 1% FCS, 2 mM glutamine, non-essential amino acids, sodium pyruvate, 1% insulin/transferrin/selenium, hydrocortisone). 16 hours later, 50 μl of the various compounds are added at 2 and 20 μM after dilution in complete culture medium in order to obtain final concentrations of 1 and 10 μM. After 3 days, the ATP content of the cells is measured using the Cell Titer-Glo® Luminescent Cell Viability Assay kit (Promega, France) according to the supplier's recommendations. The percentage inhibition of the amount of intracellular ATP is calculated by considering the ATP content of the cells cultured in the absence of antagonist to be 0% inhibition. 100% inhibition would correspond to a well in which the ATP content is zero.
Thus, compounds 1 to 24 are capable of inhibiting the amount of intracellular ATP in TCC97-7 cells by more than 20% at the dose of 1 or 10 μM (Table No. 3).

O=C(c1ccc(-c2cc(C(F)F)c3c(-c4ccccc4)n[nH]c3n2)cc1)N1CCCC1 (as salt: hydrochloride) [compound 5, [4-(4-Difluoromethyl-3-phenyl-1H-pyrazolo[3,4-b]pyridin-6-yl)phenyl]pyrrolidin-1-ylmethanone hydrochloride]
melting point: 248 °C

N#Cc1cc(-c2cc(C(F)F)c3c(-c4ccccc4)n[nH]c3n2)ccc1N (as salt: hydrochloride) [compound 22, 2-Amino-5-(4-difluoromethyl-3-phenyl-1H-pyrazolo[3,4-b]pyridin-6-yl)benzonitrile hydrochloride]
melting point: 282 °C

Cn1nc(-c2ccccc2)c2c(C(F)(F)F)cc(-c3cccc(C(N)=O)c3)nc21 [compound 1, 3-(1-methyl-3-phenyl-4-trifluoromethyl-1H-pyrazolo[3,4-b]pyridin-6-yl)benzamide]
inhibition at 1 µM [1]: 8% | inhibition at 10 µM [1]: 91.6% | inhibition at 1 µM [2]: 10.9% | inhibition at 10 µM [2]: 41.1%

CNC(=O)c1cc(-c2cc(C(F)(F)F)c3c(-c4ccccc4)nn(C)c3n2)ccc1F [compound 2, 2-Fluoro-N-methyl-5-(1-methyl-3-phenyl-4-trifluoromethyl-1H-pyrazolo[3,4-b]pyridin-6-yl)benzamide]
inhibition at 1 µM [1]: 4% | inhibition at 10 µM [1]: 53.2% | inhibition at 1 µM [2]: 17.9% | inhibition at 10 µM [2]: 35.9%

CN(C)c1cccc(-c2cc(C(F)(F)F)c3c(-c4ccccc4)nn(C)c3n2)c1 [compound 3, Dimethyl-[3-(1-methyl-3-phenyl-4-trifluoromethyl-1H-pyrazolo[3,4-b]pyridin-6-yl)phenyl]amine]
inhibition at 1 µM [1]: -32.3% | inhibition at 10 µM [1]: 40% | inhibition at 1 µM [2]: 21.3% | inhibition at 10 µM [2]: 47.7% | melting point: 95 °C

CN(C)C(=O)c1cccc(-c2cc(C(F)(F)F)c3c(-c4ccccc4)nn(C)c3n2)c1 [compound 4, N,N-Dimethyl-3-(1-methyl-3-phenyl-4-trifluoromethyl-1H-pyrazolo[3,4-b]pyridin-6-yl)benzamide]
inhibition at 1 µM [1]: 5% | inhibition at 10 µM [1]: 64.4% | inhibition at 1 µM [2]: 23.7% | inhibition at 10 µM [2]: 49.6%

O=C(c1ccc(-c2cc(C(F)F)c3c(-c4ccccc4)n[nH]c3n2)cc1)N1CCCC1 [compound 5, [4-(4-Difluoromethyl-3-phenyl-1H-pyrazolo[3,4-b]pyridin-6-yl)phenyl]pyrrolidin-1-ylmethanone hydrochloride]
inhibition at 1 µM [1]: 45.7% | inhibition at 10 µM [1]: 19.5% | inhibition at 1 µM [2]: 37.1% | inhibition at 10 µM [2]: 40.8%

O=C(c1cccc(-c2cc(C(F)F)c3c(-c4ccccc4)n[nH]c3n2)c1)N1CCCC1 [compound 6, [3-(4-Difluoromethyl-3-phenyl-1H-pyrazolo[3,4-b]pyridin-6-yl)phenyl]pyrrolidin-1-ylmethanone hydrochloride]
inhibition at 1 µM [1]: 16.2% | inhibition at 10 µM [1]: 83.9% | inhibition at 1 µM [2]: 26.9% | inhibition at 10 µM [2]: 90.5%

FC(F)c1cc(-c2cccc(N3CCCCC3)c2)nc2[nH]nc(-c3ccccc3)c12 [compound 7, 4-Difluoromethyl-3-phenyl-6-(3-piperidin-1-ylphenyl)-1H-pyrazolo[3,4-b]pyridine hydrochloride]
inhibition at 1 µM [1]: -50.3% | inhibition at 10 µM [1]: 52.2% | inhibition at 1 µM [2]: 20.4% | inhibition at 10 µM [2]: 78%

CN(C)CCn1nc(-c2ccccc2)c2c(C(F)(F)F)cc(-c3ccc(N)c(C#N)c3)nc21 [compound 8, 2-Amino-5-[1-(2-dimethylamino-ethyl)-3-phenyl-4-trifluoromethyl-1H-pyrazolo[3,4-b]pyridin-6-yl]benzonitrile]
inhibition at 1 µM [1]: 10.8% | inhibition at 10 µM [1]: 95.2% | inhibition at 1 µM [2]: 27.7% | inhibition at 10 µM [2]: 97.8%

COc1ncc(-c2cc(C(F)(F)F)c3c(-c4ccccc4)nn(C)c3n2)cc1C#N [compound 9, 2-Methoxy-5-(1-methyl-3-phenyl-4-trifluoromethyl-1H-pyrazolo[3,4-b]pyridin-6-yl)nicotinonitrile]
inhibition at 1 µM [1]: 27.6% | inhibition at 10 µM [1]: 79.7% | inhibition at 1 µM [2]: 12.3% | inhibition at 10 µM [2]: 69.3% | melting point: 250 °C

N#Cc1cc(-c2cc(C(F)(F)F)c3c(-c4ccccc4)nn(CCN4CCCCC4)c3n2)ccc1N [compound 10, 2-Amino-5-[3-phenyl-1-(2-piperidin-1-ylethyl)-4-trifluoromethyl-1H-pyrazolo[3,4-b]pyridin-6-yl]benzonitrile]
inhibition at 1 µM [1]: 22.8% | inhibition at 10 µM [1]: 85.9% | inhibition at 1 µM [2]: 11% | inhibition at 10 µM [2]: 94.4%

N#Cc1cc(-c2cc(C(F)F)c3c(-c4cccnc4)n[nH]c3n2)ccc1N [compound 11, 2-Amino-5-(4-difluoromethyl-3-pyridin-3-yl-1H-pyrazolo[3,4-b]pyridin-6-yl)benzonitrile]
inhibition at 1 µM [1]: 50.4% | inhibition at 10 µM [1]: 19.2% | inhibition at 1 µM [2]: 21.5% | inhibition at 10 µM [2]: 25.5% | melting point: 296 °C

CS(=O)(=O)Nc1cccc(-c2cc(C(F)(F)F)c3c(-c4ccccc4)n[nH]c3n2)c1 [compound 13, N-[3-(3-Phenyl-4-trifluoromethyl-1H-pyrazolo[3,4-b]pyridin-6-yl)phenyl]methanesulphonamide hydrochloride]
inhibition at 1 µM [1]: 0% | inhibition at 10 µM [1]: 57% | inhibition at 1 µM [2]: 56% | inhibition at 10 µM [2]: 63%

CN(C)CCn1nc(-c2ccccc2)c2c(C(F)F)cc(-c3ccc(N)c(C#N)c3)nc21 [compound 14, 2-Amino-5-[4-difluoromethyl-1-(2-dimethylaminoethyl)-3-phenyl-1H-pyrazolo[3,4-b]pyridin-6-yl]benzonitrile]
inhibition at 1 µM [2]: 32% | inhibition at 10 µM [2]: 77%

Nc1ccc(-c2cc(C(F)(F)F)c3c(-c4ccccc4)n[nH]c3n2)cc1 [compound 16, 4-(3-Phenyl-4-trifluoromethyl-1H-pyrazolo[3,4-b]pyridin-6-yl)phenylamine]
inhibition at 1 µM [2]: 24% | inhibition at 10 µM [2]: 38% | melting point: 237 °C

CNC(=O)c1cccc(-c2cc(C(F)(F)F)c3c(-c4ccccc4)n[nH]c3n2)c1 [compound 17, N-Methyl-3-(3-phenyl-4-trifluoromethyl-1H-pyrazolo[3,4-b]pyridin-6-yl)benzamide hydrochloride]
inhibition at 1 µM [2]: 13% | inhibition at 10 µM [2]: 69%

CN(C)c1ccc(-c2cc(C(F)(F)F)c3c(-c4ccccc4)n[nH]c3n2)cc1 [compound 19, Dimethyl-[4-(3-phenyl-4-trifluoromethyl-1H-pyrazolo[3,4-b]pyridin-6-yl)phenyl]amine]
inhibition at 1 µM [2]: 30% | inhibition at 10 µM [2]: 63%

N#Cc1cc(-c2cc(C(F)(F)F)c3c(-c4ccccc4)n[nH]c3n2)ccc1F [compound 20, 2-Fluoro-5-(3-phenyl-4-trifluoromethyl-1H-pyrazolo[3,4-b]pyridin-6-yl)benzonitrile]
inhibition at 1 µM [2]: 11% | inhibition at 10 µM [2]: 26%

Cn1nc(-c2ccccc2)c2c(C(F)(F)F)cc(-c3cccc(NS(C)(=O)=O)c3)nc21 [compound 21, N-[3-(1-Methyl-3-phenyl-4-trifluoromethyl-1H-pyrazolo[3,4-b]pyridin-6-yl)phenyl]methanesulphonamide]
inhibition at 1 µM [1]: -3% | inhibition at 10 µM [1]: 61% | inhibition at 1 µM [2]: -1% | inhibition at 10 µM [2]: 25%

N#Cc1cc(-c2cc(C(F)F)c3c(-c4ccccc4)n[nH]c3n2)ccc1N [compound 22, 2-Amino-5-(4-difluoromethyl-3-phenyl-1H-pyrazolo[3,4-b]pyridin-6-yl)benzonitrile hydrochloride]
inhibition at 1 µM [2]: 27% | inhibition at 10 µM [2]: 53%

Cn1nc(-c2ccccc2)c2c(C(F)(F)F)cc(-c3ccc(C(=O)O)cc3)nc21 [compound 23, 4-(1-Methyl-3-phenyl-4-trifluoromethyl-1H-pyrazolo[3,4-b]pyridin-6-yl)benzoic acid]
inhibition at 1 µM [1]: 8% | inhibition at 10 µM [1]: 33% | inhibition at 1 µM [2]: 17% | inhibition at 10 µM [2]: 40%

FC(F)(F)c1cc(-c2ccc(N3CCOCC3)cc2)nc2[nH]nc(-c3ccccc3)c12 [compound 24, 6-(4-Morpholin-4-ylphenyl)-3-phenyl-4-trifluoromethyl-1H-pyrazolo[3,4-b]pyridine hydrochloride]
inhibition at 1 µM [2]: 6% | inhibition at 10 µM [2]: 27%
